Literature values as cited in US20140323444A1, “ANTI-INFLAMMATORY AND ANTIDIABETIC AGENTS” (priority 2013, published 2014).

Key:
[1] = test system: platelet aggregation; settings: unlike aspirin
[2] = test system: patients with type 2 diabetes
[3] = test system: prostaglandin synthesis; settings: in vivo; compared with aspirin and indomethacin
[4] = compared with placebo; in contrast to aspirin

inhibition of platelet aggregation [1]: does not inhibit platelet aggregation
Compound: O=C(Oc1ccccc1C(=O)O)c1ccccc1O [salsalate, 2-(2-hydroxybenzoyl)oxybenzoic acid]
adiponectin concentrations ([2]; in vivo): increase adiponectin concentrations
circulating insulin ([2]; in vivo): increase circulating insulin
glucose utilization ([2]; in vivo): improve glucose utilization
C-reactive protein ([2]; patients with type 2 diabetes): lowers
HbA1c levels ([2]; patients with type 2 diabetes): lowers
blood glucose ([2]; patients with type 2 diabetes): lowers
free fatty acid ([2]; patients with type 2 diabetes): lowers
triglycerides ([2]; patients with type 2 diabetes): lowers
anti-inflammatory activity [3]: equivalent to aspirin and indomethacin
fecal gastrointestinal blood loss [4]: no greater fecal gastrointestinal blood loss than placebo
